Data set [1] relates to Klebsiella pneumoniae T 25. The experiment in a line: MIC by agar plate dilution method, Klebsiella pneumoniae T 25. It counts as cell-based. The note with it: T25, inoculum size 10^6 cells/ml. The method, then:
(§1) Subsequently, there were tested the minimal inhibitory concentration (MIC) of the compounds of the present invention against various bacteria and the concentration of the compound in blood after oral administration to rats, and the results are shown.
(§2) The antibacterial activities of the compound of the present invention against various bacteria (inoculum size: 10^6 cells/ml) were tested by the agar plate dilution method, and the results are shown in the following Table 1.

Data set [2] can be described thus: concentration of the compound in blood after oral administration to rats. Format: in vivo, Male wister rats. The note with it: rat, 50 mg/kg, bioassay (Escherichia coli SC507). As for the experimental part: Male wister rats (7 weeks old) were administered orally with the test compound, and the change of the concentration of the compound in blood was measured.
Dosage of the test compound: 50 mg/kg
Quantitative method: Bioassy
(test bacterium: Escherichia coli SC507)

Data set [3] has as its system Escherichia coli NIHJ JC-2. The experiment in a line: MIC by agar plate dilution method, Escherichia coli NIHJ JC-2. Format: cell-based. The note with it: NIHJJC2, inoculum size 10^6 cells/ml. The method, then:
as §1, §2

Data set [4] concerns Bacillus cereus S 1101. The experiment in a line: MIC by agar plate dilution method, Bacillus cereus S 1101. It counts as cell-based. The settings on record: S1101. As for the experimental part: as §1, §2
Data set [5] has as its system Serratia marcescens IID 618. The experiment in a line: MIC by agar plate dilution method, Serratia marcescens IID 618. Format: cell-based. The note with it: IID618. As for the experimental part: as §1, §2
Data set [6] deals with Staphylococcus aureus FDA 209P-JC. The experiment in a line: MIC by agar plate dilution method, Staphylococcus aureus FDA 209P-JC. It counts as cell-based. The note with it: FDA209P, inoculum size 10^6 cells/ml. The method, then:
as §1, §2

Data set [7] deals with Morganella morganii IID 602. The experiment in a line: MIC by agar plate dilution method, Morganella morganii IID 602. Format: cell-based. The note with it: IID602. As for the experimental part:
as §1, §2

Where [8] appears, read: Bacillus cereus S 1101, inoculum size 10^6 cells/ml, read-out: MIC.
Setting [9] is: Serratia marcescens IID 618, inoculum size 10^6 cells/ml, read-out: MIC.
Where [10] appears, read: Morganella morganii IID 602, inoculum size 10^6 cells/ml, read-out: MIC.

SMILES strings stand for the structures. In brackets after ≈: the same amount, converted by molar mass. Counter-ions that a name gives are not always drawn. Like-named read-outs stand apart in the source and are kept apart here.

Consider nine compounds from patent publication US4812562A, “Cephalosporin derivatives” (Taisho Pharmaceutical Co., Ltd., priority 1985, dated 1989).

Usually MIC stands for the lowest concentration that inhibits growth of the organism. `N#CCSC1=C(C(=O)O)N2C(=O)[C@@H](NC(=O)/C(=N\OCC(=O)O)c3csc(N)n3)[C@H]2SC1` [A]: the MIC in data set [1] is 25 µg/mL (≈ 50.1 µM); in data set [3], 1.56 µg/mL (≈ 3.13 µM); in data set [4] (setting [8]) it was 0.2 µg/mL (≈ 0.401 µM); in data set [5] (setting [9]), 0.78 µg/mL (≈ 1.56 µM); in data set [6], 6.25 µg/mL (≈ 12.5 µM); in data set [7] (setting [10]) it was below 0.1 µg/mL. The concentration at 1 h in data set [2] came to 28700 ng/mL. The same compound gave a concentration at 2 h in data set [2] of 19500 ng/mL. The same compound gave a concentration at 4 h in data set [2] of 4300 ng/mL.

Turning to `COCCSC1=C(C(=O)O)N2C(=O)[C@@H](NC(=O)/C(=N\OCC(=O)O)c3csc(N)n3)[C@H]2SC1` [B], the MIC in data set [1] is 6.25 µg/mL (≈ 12.1 µM); in data set [3] it was 0.78 µg/mL (≈ 1.51 µM); in data set [4] (setting [8]) it was 0.39 µg/mL (≈ 0.754 µM); in data set [5] (setting [9]), 1.56 µg/mL (≈ 3.01 µM); in data set [6], 25 µg/mL (≈ 48.3 µM); in data set [7] (setting [10]), at most 0.1 µg/mL.

As for `Nc1nc(/C(=N/OCC(=O)O)C(=O)N[C@@H]2C(=O)N3C(C(=O)O)=C(SCCF)CS[C@H]23)cs1` [C], the minimal inhibitory concentration (MIC) in data set [1] was 25 µg/mL (≈ 49.5 µM); in data set [3] it was 1.56 µg/mL (≈ 3.09 µM); in data set [4] (setting [8]), 0.2 µg/mL (≈ 0.396 µM); in data set [5] (setting [9]), 1.56 µg/mL (≈ 3.09 µM); in data set [6], 6.25 µg/mL (≈ 12.4 µM); in data set [7] (setting [10]), below 0.1 µg/mL. This compound also gave a concentration at 1 h in data set [2] of 25600 ng/mL. In addition, the concentration at 2 h in data set [2] came out at 9100 ng/mL. In addition, the concentration at 4 h in data set [2] was found to be 4000 ng/mL.

For `NCCCSC1=C(C(=O)O)N2C(=O)[C@@H](NC(=O)/C(=N\OCC(=O)O)c3csc(N)n3)[C@H]2SC1` [D], the MIC was 3.13 µg/mL (≈ 6.06 µM) in data set [1]; 0.78 µg/mL (≈ 1.51 µM) in data set [3]; 0.2 µg/mL (≈ 0.387 µM) in data set [4] (setting [8]); 0.39 µg/mL (≈ 0.755 µM) in data set [5] (setting [9]); 6.25 µg/mL (≈ 12.1 µM) in data set [6]; 0.39 µg/mL (≈ 0.755 µM) in data set [7] (setting [10]). Moreover, in data set [2], the concentration at 1 h was 11900 ng/mL. The compound further had a concentration at 2 h in data set [2] of 16600 ng/mL. Also, the concentration at 4 h in data set [2] was determined as 15400 ng/mL.

Consider `Nc1nc(/C(=N/OCC(=O)O)C(=O)N[C@@H]2C(=O)N3C(C(=O)O)=C(SCc4ccccn4)CS[C@H]23)cs1` [E], for which the minimal inhibitory concentration (MIC) in data set [1] is 1.56 µg/mL (≈ 2.83 µM); in data set [3], 0.39 µg/mL (≈ 0.708 µM); in data set [4] (setting [8]) it was 0.39 µg/mL (≈ 0.708 µM); in data set [5] (setting [9]) it was 0.78 µg/mL (≈ 1.42 µM); in data set [6], 12.5 µg/mL (≈ 22.7 µM); in data set [7] (setting [10]), at most 0.1 µg/mL.

In the case of `NC(=O)CCSC1=C(C(=O)O)N2C(=O)[C@@H](NC(=O)/C(=N\OCC(=O)O)c3csc(N)n3)[C@H]2SC1` [F], the MIC in data set [1] was determined as 12.5 µg/mL (≈ 23.6 µM); in data set [3] it was 1.56 µg/mL (≈ 2.94 µM); in data set [4] (setting [8]), 0.2 µg/mL (≈ 0.377 µM); in data set [5] (setting [9]) it was 0.78 µg/mL (≈ 1.47 µM); in data set [6], 12.5 µg/mL (≈ 23.6 µM); in data set [7] (setting [10]), 0.1 µg/mL (≈ 0.188 µM).

For `NC(=O)OCCSC1=C(C(=O)O)N2C(=O)[C@@H](NC(=O)/C(=N\OCC(=O)O)c3csc(N)n3)[C@H]2SC1` [G, 7β-{α-(2-aminothiazole-4-yl)-α-[(Z)-carboxymethoxyimino]acetamido}-3-(2-carbamoyloxy)ethylthio-3-cephem-4-carboxylic acid sodium salt], the MIC in data set [1] is 6.25 µg/mL; in data set [3], 0.39 µg/mL; in data set [4] (setting [8]) it was 0.2 µg/mL; in data set [5] (setting [9]), 0.78 µg/mL; in data set [6], 12.5 µg/mL; in data set [7] (setting [10]) it was at most 0.1 µg/mL.

For `CSC1=C(C(=O)O)N2C(=O)[C@@H](NC(=O)/C(=N\OCC(=O)O)c3csc(N)n3)[C@H]2SC1` [XX, 7{(2-aminothiazole-4-yl)-[(Z)carboxy-methoxyimino]acetamido3-methylthio-3cephem-4-carboxylic acid sodium salt, reference compound], the MIC in data set [1] was 25 µg/mL; in data set [3], 1.56 µg/mL; in data set [4] (setting [8]), 0.78 µg/mL; in data set [5] (setting [9]), 1.56 µg/mL; in data set [6] it was 50 µg/mL; in data set [7] (setting [10]), 0.39 µg/mL.

Regarding `CC1=C(C(=O)O)N2C(=O)[C@@H](NC(=O)[C@H](N)c3ccccc3)[C@H]2SC1` [YY, Cefalexin, reference compound], the MIC was at most 0.1 µg/mL in data set [4] (Bacillus cereus), above 400 µg/mL in data set [5] (Serratia marcescens), 0.78 µg/mL (≈ 2.25 µM) in data set [6] and 200 µg/mL (≈ 576 µM) in data set [7] (Morganella morganii).
